In patent US12448377B2, “Heterocyclic compound” (Takeda Pharmaceutical Company Limited, priority 2019, dated 2025):

How the values were obtained:
[1] = biological target: T1, human orexin type 2 receptor (Homo sapiens, UniProt O43614); experiment: Measurement of orexin type 2 receptor agonist activity (calcium fluorescence, CHO cells forcibly expressing human OX2 receptor); assay type: cell-based; details: compound at 3 μM, DMSO = 0%, orexin A (human) 10 nM = 100%
T1 construct: expressed in transfected cells
T1 sequence (O43614 1-444): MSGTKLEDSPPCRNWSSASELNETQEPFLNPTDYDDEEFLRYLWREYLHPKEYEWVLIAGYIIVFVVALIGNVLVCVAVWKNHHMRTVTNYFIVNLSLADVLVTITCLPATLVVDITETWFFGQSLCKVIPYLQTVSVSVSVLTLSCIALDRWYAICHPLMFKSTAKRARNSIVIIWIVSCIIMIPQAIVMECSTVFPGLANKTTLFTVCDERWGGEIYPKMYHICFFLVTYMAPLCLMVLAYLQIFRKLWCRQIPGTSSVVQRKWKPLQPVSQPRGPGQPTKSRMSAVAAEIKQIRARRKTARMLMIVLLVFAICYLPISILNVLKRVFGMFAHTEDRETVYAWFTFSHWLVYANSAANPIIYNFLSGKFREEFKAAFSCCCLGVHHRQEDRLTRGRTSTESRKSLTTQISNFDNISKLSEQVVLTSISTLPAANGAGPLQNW
Method in brief: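 Agonism measured as Fluo-4 calcium fluorescence in CHO-K1 cells stably expressing human OX2 receptor, loaded 30 min at 37° C then 30 min at room temperature with probenecid. Signal recorded about 2 min 40 sec after compound; activity (%) normalised to DMSO (0%) and 10 nM human orexin A (100%).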

[2] = test system: cynomolgus monkeys; experiment: Evaluation of wake-promoting effects in cynomolgus monkeys (EEG/EMG/EOG); assay type: in vivo, cynomolgus monkey; details: s.c., at ZT12, 4 h after administration
Protocol: The wake-promoting effects were evaluated by measuring the electroencephalogram (EEG), electromyogram (EMG) and electrooculogram (EOG) in cynomolgus monkeys. Under isoflurane anesthesia (1-5%, Pfizer Japan Inc., Tokyo, Japan), male cynomolgus monkeys (2-3 years old, Hamri Co., Ltd., Ibaraki, Japan) were surgically implanted with radio-telemetry transmitters (TL10M3-D70-EEE, Data Sciences International Inc., MN, USA). EEG leads were stereotaxically positioned at the parietal area and secured to the cranium with stainless-steel screws in contact with the dura. […] Bilateral EMG leads were implanted into the back cervical muscles. After the surgery, each monkey was given penicillin (100,000 units/head, i.m., Meiji Seika Pharma Co., Ltd., Tokyo, Japan), buprenorphine (0.02 mg/kg, i.m., Otsuka Pharmaceutical Co., Ltd., Tokyo, Japan) and prednisolone (1 mg/kg, s.c., Kyoritsu Seiyaku Co., Ltd., Tokyo, Japan) daily for one week. After at least a 1-month recovery period in home cages, the monkeys were habituated to the recording chamber (an acrylic cage 60W×55D×75H (cm)) located in a soundproof, electrically shielded room. After confirming that the monkeys slept sufficiently in the experimental room, the cortical EEG, EMG and EOG signals were recorded using Dataquest ART software (Data Sciences International Inc., MN, USA). The signals were semi automatically scored in 20 sec epochs by a sleep scoring system (SleepSign, Kissei Comtec Co., Ltd., Nagano, Japan). This preliminary scoring was visually inspected and corrected if necessary. Test compound (0.1, 0.3, 1 or 10 mg/kg, Table 4) dissolved in a mixed solution containing 5% DMSO, 5% Cremophor EL, 20% PEG400 and 70% soluplus (1% (w/v)), or vehicle (i.e., a mixed solution containing 5% DMSO, 5% Cremophor EL, 20% PEG400 and 70% soluplus (1% (w/v))) was administered subcutaneously (s.c.) to the cynomolgus monkeys at ZT12 in a volume of 0.5 mL/kg in a pre-post design. The EEG, EMG and EOG recordings were performed for 4 h after the compound administration. The time spent in wakefulness for 4 h after administration (% of vehicle treatment) was calculated by using SleepSign.

[3] = test system: SD rats; experiment: Evaluation of wake-promoting effects in SD rats (EEG/EMG); assay type: in vivo, rat; details: s.c., 1 mg/kg, at ZT5, 3 hr after administration
Protocol: The wake-promoting effects were evaluated by measuring the electroencephalogram (EEG) and electromyogram (EMG) in SD rats (Crl:CD(SD), CHARLES RIVER LABORATORIES JAPAN, Kanagawa, Japan.) using chronic experiment telemetry automatic measurement system (PhysioTel® and PONEMAH™, Data Sciences International Inc., Minnesota, U.S.A.). Under pentobarbital sodium anesthesia (50 mg/kg, intraperitoneal, Somnopentyl®, Kyoritsu Seiyaku, Tokyo, Japan), […] male SD rats were surgically implanted with a transmitter. Bilateral EEG leads were positioned at the parietal area in contact with the dura and fixed to the cranium with dental cement. Bilateral EMG leads were fixed to the back cervical muscles. The transmitter was implanted under the skin of the back, and the head skin was sutured. After recovery for at least 1 week, the cortical EEG and EMG signals in SD rats were recorded using a high-end data acquisition and real-time analysis system (PONEMAH™). The signals were automatically scored in 4 sec epochs by a sleep scoring system (SleepSign®, Kissei Comtec Co., Ltd.). Test compound (1 or 10 mg/kg, Table 3) dissolved in a mixed solution containing 10% DMSO, 10% Cremophor EL, 20% PEG400 and 60% H2O, or vehicle (i.e., a mixed solution containing 10% DMSO, 10% Cremophor EL, 20% PEG400 and 60% H2O) was administered subcutaneously (s.c.) to the SD rats at zeitgeber time (ZT) 5 (when the start time of the light cycle was ZT0) in a volume of 5 mL/kg. The EEG and EMG recordings were performed for 3 hr after the compound administration. The time spent in wakefulness for 3 hr after administration (% of vehicle treatment) was calculated by using SleepSign.

| OX2R agonist activity (3 μM, %) [1] [%] | Compound | other results |
| --- | --- | --- |
| 92 | Cc1ccc2n(c1=O)C(COC1CCC(c3ccccc3)CC1)C(NS(C)(=O)=O)CC2 [Example 6, rel-N-[(3S,4R)-7-methyl-6-oxo-4-({[(1s,4S)-4-phenylcyclohexyl]oxy}methyl)-1,3,4,6-tetrahydro-2H-quinolizin-3-yl]methanesulfonamide] | Wakefulness time (% of vehicle treatment) (Mean, n = 2) ([2]; 0.3 mg/kg): 352.87 % of vehicle treatment |
| 68 | CCC1CCC(OCC2C(NS(C)(=O)=O)CCc3ccc(C)c(=O)n32)CC1 [Example 9, rel-N-[(3S,4R)-4-({[(1s,4S)-4-ethylcyclohexyl]oxy}methyl)-7-methyl-6-oxo-1,3,4,6-tetrahydro-2H-quinolizin-3-yl]methanesulfonamide] | Wakefulness time (% of vehicle treatment) (Mean, n = 2) ([2]; 0.3 mg/kg): 521.43 % of vehicle treatment |
| 88 | CCCC1CCC(OCC2C(NS(=O)(=O)C3CC3)CCc3ccc(C)c(=O)n32)CC1 [Example 78, rel-N-[(3S,4R)-7-methyl-6-oxo-4-({[(1r,4S)-4-propylcyclohexyl]oxy}methyl)-1,3,4,6-tetrahydro-2H-quinolizin-3-yl]cyclopropanesulfonamide] | Wakefulness time (% of vehicle treatment) (Mean, n = 2) [3]: 130.53 % of vehicle treatment |
| 84 | CC1CCC(OCC2C(NS(C)(=O)=O)CCc3ccc(C4CC4)c(=O)n32)CC1 [Example 105, rel-N-[(3S,4R)-7-cyclopropyl-4-({[(1s,4S)-4-methylcyclohexyl]oxy)methyl)-6-oxo-1,3,4,6-tetrahydro-2H-quinolizin-3-yl]methanesulfonamide] |  |
| 91 | CCC1CCC(OCC2C(NS(C)(=O)=O)CCc3c(Br)cc(C)c(=O)n32)CC1 [Example 106, rel-N-[(3S,4R)-9-bromo-4-({[(1s,4S)-4-ethylcyclohexyl]oxy}methyl)-7-methyl-6-oxo-1,3,4,6-tetrahydro-2H-quinolizin-3-yl]methanesulfonamide] |  |
| 65 | CCCOC1CCC(OCC2C(NS(C)(=O)=O)CCc3ccc(C)c(=O)n32)CC1 [Example 107, rel-N-[(3S,4R)-7-methyl-6-oxo-4-({[(1s,4S)-4-propoxycyclohexyl]oxy}methyl)-1,3,4,6-tetrahydro-2H-quinolizin-3-yl]methanesulfonamide] |  |
| 98 | Cc1ccc2n(c1=O)C(COC1CCC(C3CC3)CC1)C(NS(C)(=O)=O)CC2 [Example 111, rel-N-[(3S,4R)-4-({[(1s,4S)-4-cyclopropylcyclohexyl]oxy}methyl)-7-methyl-6-oxo-1,3,4,6-tetrahydro-2H-quinolizin-3-yl]methanesulfonamide] | Wakefulness time (% of vehicle treatment) (Mean, n = 2) [3]: 126.37 % of vehicle treatment |
| 94 | CCS(=O)(=O)NC1CCc2ccc(C)c(=O)n2C1COC1CCC(C2CC2)CC1 [Example 112, rel-N-[(3S,4R)-4-({[(1s,4S)-4-cyclopropylcyclohexyl]oxy}methyl)-7-methyl-6-oxo-1,3,4,6-tetrahydro-2H-quinolizin-3-yl]ethanesulfonamide] | Wakefulness time (% of vehicle treatment) (Mean, n = 2) ([2]; 0.1 mg/kg): 671.65 % of vehicle treatment |
| 87 | Cc1ccc2n(c1=O)C(COC1CCC(C3CC3)CC1)C(NS(=O)(=O)C1CC1)CC2 [Example 113, rel-N-[(3S,4R)-4-({[(1s,4S)-4-cyclopropylcyclohexyl]oxy}methyl)-7-methyl-6-oxo-1,3,4,6-tetrahydro-2H-quinolizin-3-yl]cyclopropanesulfonamide] | Wakefulness time (% of vehicle treatment) (Mean, n = 2) ([2]; 0.1 mg/kg): 380.66 % of vehicle treatment |
| 69 | Cc1ccc2n(c1=O)C(COC1CCC(OCC3CC3)CC1)C(NS(C)(=O)=O)CC2 [Example 114, rel-N-[(3S,4R)-4-(([(1s,4S)-4-(cyclopropylmethoxy)cyclohexyl]oxy}methyl)-7-methyl-6-oxo-1,3,4,6-tetrahydro-2H-quinolizin-3-yl]methanesulfonamide] |  |
| 100 | CCC1CCC(OCC2C(NS(C)(=O)=O)CCc3c(C4CC4)cc(C)c(=O)n32)CC1 [Example 115, rel-N-[(3S,4R)-9-cyclopropyl-4-({[(1s,4S)-4-ethylcyclohexyl]oxy)methyl)-7-methyl-6-oxo-1,3,4,6-tetrahydro-2H-quinolizin-3-yl]methanesulfonamide] |  |
| 99 | CC#CC1CCC(OCC2C(NS(=O)(=O)N(C)C)CCc3ccc(C)c(=O)n32)CC1 [Example 144, rel-N,N-dimethyl-N′-[(3S,4R)-7-methyl-6-oxo-4-({[(1s,4S)-4-(prop-1-yn-1-yl)cyclohexyl]oxy}methyl)-1,3,4,6-tetrahydro-2H-quinolizin-3-yl]sulfuric diamide] |  |
| 96 | CCOC1CCC(OCC2C(NS(C)(=O)=O)CCc3ccc(C)c(=O)n32)CC1 [Example 145, rel-N-[(3S,4R)-4-({[(1s,4S)-4-ethoxycyclohexyl]oxy}methyl)-7-methyl-6-oxo-1,3,4,6-tetrahydro-2H-quinolizin-3-yl]methanesulfonamide] | Wakefulness time (% of vehicle treatment) (Mean, n = 2) ([2]; 10 mg/kg): 277.67 % of vehicle treatment |
| 99 | CC#CC1CCC(OCC2C(NS(=O)(=O)CC)CCc3ccc(C)c(=O)n32)CC1 [Example 147, rel-N-[(3S,4R)-7-methyl-6-oxo-4-({[(1s,4S)-4-(prop-1-yn-1-yl)cyclohexyl]oxy}methyl)-1,3,4,6-tetrahydro-2H-quinolizin-3-yl]ethanesulfonamide] | Wakefulness time (% of vehicle treatment) (Mean, n = 2) ([2]; 1 mg/kg): 389.64 % of vehicle treatment |
| 97 | CC#CC1CCC(OCC2C(NS(=O)(=O)C3CC3)CCc3ccc(C)c(=O)n32)CC1 [Example 148, rel-N-[(3S,4R)-7-methyl-6-oxo-4-({[(1s,4S)-4-(prop-1-yn-1-yl)cyclohexyl]oxy}methyl)-1,3,4,6-tetrahydro-2H-quinolizin-3-yl]cyclopropanesulfonamide] | Wakefulness time (% of vehicle treatment) (Mean, n = 2) ([2]; 1 mg/kg): 324.87 % of vehicle treatment |
| 95 | CC#CC1CCC(OCC2C(NS(=O)(=O)NC)CCc3ccc(C)c(=O)n32)CC1 [Example 149, rel-N-methyl-N′-[(3S,4R)-7-methyl-6-oxo-4-({[(1s,4S)-4-(prop-1-yn-1-yl)cyclohexyl]oxy}methyl)-1,3,4,6-tetrahydro-2H-quinolizin-3-yl]sulfuric diamide] |  |
